Assay results: ChEMBL document CHEMBL1128591, “1,2-Diarylcyclopentenes as selective cyclooxygenase-2 inhibitors and orally active anti-inflammatory agents” (J Med Chem, 1995)

Assays:
Rattus norvegicus [1] = organism: Rattus norvegicus; assay: animal or person; conditions: read-out: Inhibition
Rattus norvegicus [2] = organism: Rattus norvegicus; assay: animal or person; conditions: read-out: Inhibition; remark: listed apart in the source
[3] = molecular target: Prostaglandin G/H synthase 1 (Homo sapiens, UniProt P23219)
Sequence of Prostaglandin G/H synthase 1 (P23219 whole entry): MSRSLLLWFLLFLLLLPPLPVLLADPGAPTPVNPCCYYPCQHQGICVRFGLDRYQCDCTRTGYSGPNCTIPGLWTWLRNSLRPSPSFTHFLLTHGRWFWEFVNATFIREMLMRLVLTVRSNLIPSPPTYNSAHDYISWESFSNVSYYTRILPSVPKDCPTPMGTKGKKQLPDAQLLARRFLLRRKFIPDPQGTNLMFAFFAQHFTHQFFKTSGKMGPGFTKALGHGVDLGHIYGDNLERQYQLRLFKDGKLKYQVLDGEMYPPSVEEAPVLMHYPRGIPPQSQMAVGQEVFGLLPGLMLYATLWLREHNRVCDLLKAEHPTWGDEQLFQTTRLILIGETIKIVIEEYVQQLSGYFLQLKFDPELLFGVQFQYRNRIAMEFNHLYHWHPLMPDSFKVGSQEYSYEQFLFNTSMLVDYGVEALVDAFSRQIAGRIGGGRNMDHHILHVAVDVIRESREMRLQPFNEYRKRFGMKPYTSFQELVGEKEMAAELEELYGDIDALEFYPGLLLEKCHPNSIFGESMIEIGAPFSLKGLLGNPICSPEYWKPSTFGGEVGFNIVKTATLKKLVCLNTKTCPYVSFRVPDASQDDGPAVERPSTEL

| Structure (SMILES) | IC50 [3] | inhibition in vivo at 30 mg/kg (Rattus norvegicus [1]) | inhibition in vivo at 1 mg/kg (Rattus norvegicus [2]) |
| --- | --- | --- | --- |
| NS(=O)(=O)c1ccc(C2=C(c3ccc(F)c(Cl)c3)CCC2)cc1 | 5.1 µM | 43.3% | 81.5% |
| CN(C)c1ccc(C2=C(c3ccc(S(N)(=O)=O)cc3)CCC2)cc1Cl | 1.8 µM | – | – |
| COc1ccc(C2=C(c3ccc(S(N)(=O)=O)cc3)CCC2)cc1Cl | – | 32% | 25% |
| NS(=O)(=O)c1ccc(C2=C(c3ccc(Cl)c(Cl)c3)CCC2)cc1 | – | 31% | 83% |
| COc1ccc(C2=C(c3ccc(S(C)(=O)=O)cc3)CCC2)cc1 | – | 42.7% | 0% |
| CS(=O)(=O)c1ccc(C2=C(c3ccc(F)c(Cl)c3)CCC2)cc1 | – | 40% | – |
| NS(=O)(=O)c1ccc(C2=C(c3ccc(F)cc3)CCC2)cc1 | – | 45.3% | 79% |
| CS(=O)(=O)c1ccc(C2=C(c3ccc(Cl)c(Cl)c3)CCC2)cc1 | – | – | 45% |
| CS(=O)(=O)c1ccc(C2=C(c3cc(F)c(F)c(F)c3)CCC2)cc1 | > 100 µM | – | – |
| COc1ccc(C2=C(c3ccc(S(N)(=O)=O)cc3)CCC2)cc1F | – | – | 25% |
| CS(=O)(=O)c1ccc(C2=C(c3ccc(F)cc3)CCC2)cc1 [SC-57666] | – | 45.3% | 29.3% |
| COc1ccc(C2=C(c3ccc(S(N)(=O)=O)cc3)CCC2)cc1 | – | 10% | – |
| CS(=O)(=O)c1ccc(C2=C(c3ccc(Cl)cc3)CCC2)cc1 | – | 49% | 21% |
| NS(=O)(=O)c1ccc(C2=C(c3ccc4c(c3)OCO4)CCC2)cc1 | 1.9 µM | – | – |
| CS(=O)(=O)c1ccc(C2=C(c3ccc(F)c(C(F)(F)F)c3)CCC2)cc1 | > 100 µM | – | – |

The next lines start with results.

| IC50 [3] | Structure (SMILES) | inhibition in vivo at 30 mg/kg (Rattus norvegicus [1]) | inhibition in vivo at 1 mg/kg (Rattus norvegicus [2]) |
| --- | --- | --- | --- |
| 71.6 µM | COc1c(Cl)cc(C2=C(c3ccc(S(N)(=O)=O)cc3)CCC2)cc1Cl | – | – |
| > 10 µM | CS(=O)(=O)Nc1cc2c(cc1Sc1ccc(F)cc1F)C(=O)CC2 | – | – |
| > 100 µM | CS(=O)(=O)c1ccc(C2=C(c3ccc(C(F)(F)F)c(F)c3)CCC2)cc1 | – | – |
| 14.5 µM | NS(=O)(=O)c1ccc(C2=C(c3ccc(C(F)(F)F)c(F)c3)CCC2)cc1 | – | – |
| 37.7 µM | CN(C)c1ccc(C2=C(c3ccc(S(C)(=O)=O)cc3)CCC2)cc1Cl | – | – |
| > 100 µM | NS(=O)(=O)c1ccc(C2=C(c3cc(F)c(F)c(F)c3)CCC2)cc1 | – | – |
| > 100 µM | COc1c(Cl)cc(C2=C(c3ccc(S(C)(=O)=O)cc3)CCC2)cc1Cl | – | – |
